Measurements from patent publication US20230382923A1, “FUSED TETRACYCLIC QUINAZOLINE DERIVATIVES AS INHIBITORS OF ERBB2” (EnLiven Therapeutics, Inc., priority 2021, published 2023).

Experiments:
[1] = tested on: Ba/F3 ERBB2 YVMA; experiment: Cell viability assay (CellTiter Glo, 72 hours); type: cell-based, mouse; details: Ba/F3 cells engineered to express human ERBB2 YVMA mutant; 72 hours; CellTiter Glo viability; read-out: Ba/F3 ERBB2 YVMA, IC50
Procedure: Cells were treated with compounds, and cell viability was measured as a metric of kinase inhibition.
BT-474, A431, MDA-MB-175VII, NCI-H1781, MCF7, and Ba/F3 cell lines were tested. The Ba/F3 cell line is IL-3-dependent mouse cell line derived from the C3H mouse strain. Ba/F3 cell lines were engineered to express human ERBB2 or EGFR kinases, rendering the cells IL-3 independent. The lines were generated via retroviral transduction utilizing a Moloney murine leukemia virus (MMLV) promoter, and constructs are stably integrated into the cell genome. The sequences of the ERBB2 and EGFR genes used were NCBI Reference Sequences NM_004448.3 and NM_005228.3, respectively.
BT-474, A431, MDA-MB-175VII, NCI-H1781 and MCF7 cells were grown in the appropriate growth medium as described in Table B2 below, and harvested at 50-80% confluence. BT-474, A431, MDA-MB-175VII, NCI-H1781 and MCF7 cells were counted and seeded at 2,000 or 1,500 cells per well in 384-well tissue culture plates (see Table B2). Similarly, Ba/F3 cell lines engineered to express EGFR, ERBB2, or ERBB2 mutants were grown, harvested, counted and seeded at 3000 cells per well in 96-well plates. A subset of wells contained media only (low control, “LC”).
Table B1 provides the growth media and number of cells seeded per well for the each cell line.
Compounds were dissolved in DMSO and serially diluted. Serially-diluted compound or a DMSO only control (high control, “HC”) was added to the plated cells in each well. Compounds were tested at concentrations of about 10 μM to 0.51 nM, using three-fold dilutions. The final proportion of DMSO never exceeded 0.1%.
Plates were placed in a 37° C., 5% CO2 incubator for 72 hours. Plates were then removed from the incubator and equilibrated for 15 minutes at room temperature. 40 μl of CellTiter Glo reagent (Promega) was added to measure the relative level of metabolically active cells by quantifying intracellular ATP concentrations. Plates were incubated for 30 minutes at room temperature, and luminescence was measured. Percent viability was normalized to a vehicle control only using the following formula: % viability=100×(LumSample−LumLC)/(LumHC−LumLC). Graphical curves were fitted using a nonlinear regression model with a sigmoidal dose response.

[2] = molecular target: phosphorylated EGFR (pEGFR) (Homo sapiens (Human), UniProt P00533); experiment: Detection of phosphorylated EGFR (pEGFR) by AlphaLISA in A431 cells; type: cell-based; details: A431 cells (10% FBS), 4 hours incubation, EGF 30 ng/mL for 10 minutes
Procedure: […] were performed to measure phosphorylated EGFR levels using A431 cells (10% FBS). A431 (1.0*10^4cells/40 μl/well) cells were seeded in 384 well. Compounds were dissolved in DMSO, serially diluted in DMSO and then were added, mixed, and incubated for 4 hours at 37° C., […]. Following the 4-hours incubation, cells were stimulated for 10 minutes with EGF (Invitrogen, cat #PHG0311) at a final concentration of 30 ng/mL in the incubator. The media was aspirated and cells were lysed in 10 μL lysis buffer with protease and phosphatase inhibitors (PerkinElmer, cat #ALSU-PEGFR-A50K). The plates were placed on a shaker for 5 minutes and then incubated for 30 min at 4° C. for complete lysis. The lysate was transferred to an Optiplate (Perkin Elmer, cat #6007290).
Acceptor mix (PerkinElmer, cat #ALSU-PEGFR-A50K) was prepared just before use and 5 μL was dispensed to all the wells, followed by a 1.5-2 h incubation at room temperature in dark. The donor mix (PerkinElmer, cat #ALSU-PEGFR-A50K) was prepared under low light conditions prior to use and 5 μl of donor mix was added to all the wells under subdued lighting or green filters. The plates were placed on a shaker for 5 min, sealed, and incubated overnight at room temperature in dark. Plates were read on the Envision (PerkinElmer) using standard AlphaLISA settings.
The percentage of inhibition on EGFR phosphorylation was calculated following equation: % Inhibition=100×(LumHC−LumSample)/(LumHC−LumLC). The low and high controls (LC/HC) are generated from lysate from wells with cells treated with DMSO or […] Staurosporine (BioAustralis, cat #BIA-S1086), […]. IC50 values were calculated by fitting the Curve using XLfit (v5.3.1.3), equation 201: Y=Bottom+(Top−Bottom)/(1+10^((LogIC50−X)*HillSlope)).

[3] = molecular target: phosphorylated ERBB2 (pERBB2) (Homo sapiens (Human), UniProt P04626); experiment: Detection of phosphorylated ERBB2 (pERBB2) by ELISA in BT-474 cells; type: cell-based; details: four hours incubation with compound
Procedure: BT-474 cells were seeded into a 96-well at 2.0*10^4cells/100 μl/well. Compounds were dissolved and serially diluted in DMSO. The compounds were then were added, mixed, and incubated for four hours at 37° C., 5% CO2. […] Following the four hour incubation with compounds, cell lysates were prepared. Plates were centrifuged for 5 min at 3000 RPM, and supernatant was removed from each well. Cells were washed 3 times by resuspension in 150 μl PBS, followed by centrifugation and removal of the supernatant, as above. 100 μl of cell lysis buffer (Boston BioProducts, cat #BP-115D) supplied with 1×complete ULTRA cocktail inhibitor (Thermo ScientificTM, cat #78443) was then added to the washed cells. Cells were incubated with lysis buffer for 1 hour at 4° C., and then stored at -80° C. Enzyme-linked immunosorbent assays (ELISA) were performed to measure phosphorylated ERBB2 levels. […] The next day, plates were washed with PBS+0.05% Tween20 (PBST). 150 μl of 5% BSA blocking solution was added for 1 hour at room temperature, with shaking. Plates were washed with PBST. Cell lysates were thawed and 100 μl of lysate was added to the ELISA plate. The plates were incubated for 2 hours at room temperature, with shaking. ELISA plates were then washed with PBST and 100 μl of an HRP-labeled detection antibody that binds phosphorylated tyrosine (R&D Systems, cat #841913) was added to each well. Plates were incubated for 1 hour at room temperature, with shaking. Plates were then washed with PBST, and 100 μl TMB substrate solution (R&D Systems, cat #DY999) was added. Plate were incubated in the dark for 20 minutes at room temperature. 50 μl of Stop solution (R&D Systems, cat #DY994) (50 μl) was added to each well and mixed. […] The remaining kinase activity by calculated using the following formula: % Relative activity=100×([…]). The low and high control values (“LC” and “HC”) were generated from lysate from wells without cells or with cells treated with 0.1% DMSO, respectively.

phosphorylated EGFR (pEGFR), sequence (P00533 25-1210): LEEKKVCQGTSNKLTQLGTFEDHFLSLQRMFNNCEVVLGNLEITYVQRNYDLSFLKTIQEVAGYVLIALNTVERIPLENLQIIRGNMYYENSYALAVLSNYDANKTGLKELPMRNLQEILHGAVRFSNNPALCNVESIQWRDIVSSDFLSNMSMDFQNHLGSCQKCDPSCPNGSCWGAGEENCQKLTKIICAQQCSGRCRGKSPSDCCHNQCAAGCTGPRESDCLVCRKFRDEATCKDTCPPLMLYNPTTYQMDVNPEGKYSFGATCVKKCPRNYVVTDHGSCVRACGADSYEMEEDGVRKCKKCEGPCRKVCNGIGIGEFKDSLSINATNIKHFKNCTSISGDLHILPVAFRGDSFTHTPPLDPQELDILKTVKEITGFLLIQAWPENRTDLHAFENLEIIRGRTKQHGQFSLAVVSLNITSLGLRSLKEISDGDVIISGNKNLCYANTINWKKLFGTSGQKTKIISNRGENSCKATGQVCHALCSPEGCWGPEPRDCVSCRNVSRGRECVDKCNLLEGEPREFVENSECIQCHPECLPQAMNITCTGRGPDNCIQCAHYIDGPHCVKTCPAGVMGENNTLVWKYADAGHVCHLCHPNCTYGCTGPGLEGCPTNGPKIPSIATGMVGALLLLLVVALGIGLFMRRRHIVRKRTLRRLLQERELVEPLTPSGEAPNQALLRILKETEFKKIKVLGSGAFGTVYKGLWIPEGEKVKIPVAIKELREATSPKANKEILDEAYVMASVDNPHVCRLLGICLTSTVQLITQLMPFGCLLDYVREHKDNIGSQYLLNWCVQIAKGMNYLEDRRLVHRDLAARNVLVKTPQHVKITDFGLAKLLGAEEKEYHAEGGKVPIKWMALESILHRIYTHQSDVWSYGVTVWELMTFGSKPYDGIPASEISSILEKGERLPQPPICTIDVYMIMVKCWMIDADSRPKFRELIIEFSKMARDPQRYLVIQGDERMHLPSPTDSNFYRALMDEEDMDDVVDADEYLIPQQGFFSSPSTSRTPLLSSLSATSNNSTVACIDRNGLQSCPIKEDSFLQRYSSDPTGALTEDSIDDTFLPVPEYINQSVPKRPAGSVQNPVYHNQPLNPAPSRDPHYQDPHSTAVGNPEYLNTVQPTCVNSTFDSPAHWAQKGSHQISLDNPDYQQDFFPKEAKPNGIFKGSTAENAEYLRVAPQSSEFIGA
phosphorylated ERBB2 (pERBB2), sequence (P04626 23-1255): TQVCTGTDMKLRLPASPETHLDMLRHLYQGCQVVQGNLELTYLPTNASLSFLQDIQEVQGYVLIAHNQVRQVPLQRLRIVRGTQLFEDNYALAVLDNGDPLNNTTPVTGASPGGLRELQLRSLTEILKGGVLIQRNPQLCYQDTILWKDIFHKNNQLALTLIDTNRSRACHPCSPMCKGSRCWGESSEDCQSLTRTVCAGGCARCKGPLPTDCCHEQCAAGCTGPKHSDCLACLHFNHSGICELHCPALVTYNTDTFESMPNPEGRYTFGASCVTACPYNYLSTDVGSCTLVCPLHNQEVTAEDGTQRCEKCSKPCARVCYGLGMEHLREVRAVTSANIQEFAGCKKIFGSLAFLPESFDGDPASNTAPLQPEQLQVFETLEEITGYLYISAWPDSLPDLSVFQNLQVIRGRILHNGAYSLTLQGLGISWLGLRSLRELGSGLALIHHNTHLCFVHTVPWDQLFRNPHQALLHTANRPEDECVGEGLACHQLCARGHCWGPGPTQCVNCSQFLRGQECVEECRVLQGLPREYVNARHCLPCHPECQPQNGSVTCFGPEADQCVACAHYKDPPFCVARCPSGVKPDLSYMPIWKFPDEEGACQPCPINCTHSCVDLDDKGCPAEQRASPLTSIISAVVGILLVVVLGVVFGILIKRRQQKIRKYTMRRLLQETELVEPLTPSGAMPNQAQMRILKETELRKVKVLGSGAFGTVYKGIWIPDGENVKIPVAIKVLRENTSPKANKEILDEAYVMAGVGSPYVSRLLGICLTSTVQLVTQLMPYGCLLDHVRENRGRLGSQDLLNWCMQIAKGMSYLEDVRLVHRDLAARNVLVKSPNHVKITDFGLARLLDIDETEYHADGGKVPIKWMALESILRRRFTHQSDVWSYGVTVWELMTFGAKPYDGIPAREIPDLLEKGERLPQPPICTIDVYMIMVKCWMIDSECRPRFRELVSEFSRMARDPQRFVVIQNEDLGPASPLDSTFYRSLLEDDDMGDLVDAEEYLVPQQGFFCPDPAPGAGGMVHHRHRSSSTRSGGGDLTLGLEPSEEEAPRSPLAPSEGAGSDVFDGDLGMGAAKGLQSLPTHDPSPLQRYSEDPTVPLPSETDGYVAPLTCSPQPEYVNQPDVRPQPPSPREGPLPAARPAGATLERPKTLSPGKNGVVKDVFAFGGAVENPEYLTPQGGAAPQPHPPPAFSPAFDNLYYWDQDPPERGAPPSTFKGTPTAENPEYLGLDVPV

| SMILES | IC50 [1] | IC50 [2] | IC50 [3] |
| --- | --- | --- | --- |
| Cc1c(Oc2ccn3ncnc3c2)ccc(Nc2ncnc3cc4c(nc23)N2CCN(C(=O)/C=C/CN(C)C)C(CO4)C2)c1F (stereo in doubt) [Compound 35, (E)-1-((10S)-4-((4-([1,2,4]triazolo[1,5-a]pyridin-7-yloxy)-2-fluoro-3-methylphenyl)amino)-7,8,10,11-tetrahydro-9H-6,10-methanopyrimido[4′,5′:5,6]pyrido[3,2-b][1,4,7]oxadiazonin-9-yl)-4-(dimethylamino)but-2-en-1-one] |  | 309 nM | 5.48 nM |
| CN(C)C/C=C/C(=O)N1CCN2C[C@H]1COc1cc3ncnc(Nc4cc(F)c(Oc5ccn6ncnc6c5)cc4F)c3nc12 [Compound 48, (E)-1-((10S)-4-((4-([1,2,4]triazolo[1,5-a]pyridin-7-yloxy)-2,5-difluorophenyl)amino)-7,8,10,11-tetrahydro-9H-6,10-methanopyrimido[4′,5′:5,6]pyrido[3,2-b][1,4,7]oxadiazonin-9-yl)-4-(dimethylamino)but-2-en-1-one] |  | 3300 nM | 10.8 nM |
| CN(C)C/C=C/C(=O)N1CCN2CC1COc1cc3ncnc(Nc4cc(Cl)c(Oc5ccn6ncnc6c5)cc4F)c3nc12 (stereo in doubt) [Compound 43, (E)-1-((10S)-4-((4-([1,2,4]triazolo[1,5-a]pyridin-7-yloxy)-5-chloro-2-fluorophenyl)amino)-7,8,10,11-tetrahydro-9H-6,10-methanopyrimido[4′,5′:5,6]pyrido[3,2-b][1,4,7]oxadiazonin-9-yl)-4-(dimethylamino)but-2-en-1-one] |  | 1400 nM | 8.69 nM |
| CN(C)C/C=C/C(=O)N1CCN2CC1COc1cc3ncnc(Nc4ccc(Oc5ccn6ncnc6c5)cc4F)c3nc12 (stereo in doubt) [Compound 42, (E)-1-((10S)-4-((4-([1,2,4]triazolo[1,5-a]pyridin-7-yloxy)-2-fluorophenyl)amino)-7,8,10,11-tetrahydro-9H-6,10-methanopyrimido[4′,5′:5,6]pyrido[3,2-b][1,4,7]oxadiazonin-9-yl)-4-(dimethylamino)but-2-en-1-one] |  | 1940 nM | 10.8 nM |
| Cc1cc(Nc2ncnc3cc4c(nc23)N2CCN(C(=O)/C=C/CN(C)C)CC(CO4)C2)ccc1Oc1ccn2ncnc2c1 (stereo not shown) [Compound 57, (E)-1-(4-((4-([1,2,4]triazolo[1,5-a]pyridin-7-yloxy)-3-methylphenyl)amino)-7,8,11,12-tetrahydro-6,11-methanopyrimido[4,5′:5,6]pyrido[3,2-b][1,4,7]oxadiazecin-9 (10H)-yl)-4-(dimethylamino)but-2-en-1-one] |  | > 10000 nM | 32.8 nM |

Next, values leading:

| IC50 [1] | IC50 [2] | IC50 [3] | SMILES |
| --- | --- | --- | --- |
| 5.88 nM | > 10000 nM |  | Cc1cc(Nc2ncnc3cc4c(nc23)N2CCCN(C(=O)/C=C/CN(C)C)C(CO4)C2)ccc1Oc1ccn2ncnc2c1 (single isomer, unassigned) [Example S55, Enantiomer 1, (E)-1-(4-((4-([1,2,4]triazolo[1,5-a]pyridin-7-yloxy)-3-methylphenyl)amino)-8,9,11,12-tetrahydro-6,11-methanopyrimido[4′,5′:5,6]pyrido[3,2-b][1,4,8]oxadiazecin-10 (7H)-yl)-4-(dimethylamino)but-2-en-1-one Enantiomer 1] |
|  | 7060 nM | 42.8 nM | CC#CC(=O)N1CCN2CC1COc1cc3ncnc(Nc4ccc(Oc5ccn6ncnc6c5)c(C)c4)c3cc12 (stereo in doubt) [Compound 12, 1-((10S)-4-((4-([1,2,4]triazolo[1,5-a]pyridin-7-yloxy)-3-methylphenyl)amino)-7,8,10,11-tetrahydro-9H-6,10-methano[1,4,7]oxadiazonino[3,2-g]quinazolin-9-yl)but-2-yn-1-one] |
|  | > 10000 nM | 343 nM | Cc1cc(Nc2ncnc3cc4c(nc23)N2CCN(C(=O)/C=C/CN(C)C)C(CO4)C2)ccc1Oc1ccn2ncnc2c1 (stereo in doubt) [Compound 15, (E)-1-((10R)-4-((4-([1,2,4]triazolo[1,5-a]pyridin-7-yloxy)-3-methylphenyl)amino)-7,8,10,11-tetrahydro-9H-6,10-methanopyrimido[4′,5′:5,6]pyrido[3,2-b][1,4,7]oxadiazonin-9-yl)-4-(dimethylamino)but-2-en-1-one] |
|  | 920 nM | 8.41 nM | CN(C)C/C=C/C(=O)N1CCN2CC1COc1cc3ncnc(Nc4ccc(Oc5ccn6ncnc6c5)c(Cl)c4)c3nc12 (stereo in doubt) [Compound 32, (E)-1-((10S)-4-((4-([1,2,4]triazolo[1,5-a]pyridin-7-yloxy)-3-chlorophenyl)amino)-7,8,10,11-tetrahydro-9H-6,10-methanopyrimido[4′,5′:5,6]pyrido[3,2-b][1,4,7]oxadiazonin-9-yl)-4-(dimethylamino)but-2-en-1-one] |
|  | > 10000 nM | 242 nM | CC#CC(=O)N1CCN2CC1COc1cc3ncnc(Nc4ccc(Oc5ccc6c(c5)ncn6C)c(C)c4)c3nc12 (stereo in doubt) [Compound 16, 1-((10S)-4-((3-methyl-4-((1-methyl-1H-benzo[d]imidazol-5-yl)oxy)phenyl)amino)-7,8,10,11-tetrahydro-9H-6,10-methanopyrimido[4′,5′:5,6]pyrido[3,2-b][1,4,7]oxadiazonin-9-yl)but-2-yn-1-one] |
|  | 3040 nM | 5.2 nM | Cc1cc(Nc2ncnc3cc4c(nc23)N2CCN(C(=O)/C=C/CN(C)C)C(CO4)C2)ccc1Oc1ccn2ncnc2c1 (stereo in doubt) [Compound 10, (E)-1-((10S)-4-((4-([1,2,4]triazolo[1,5-a]pyridin-7-yloxy)-3-methylphenyl)amino)-7,8,10,11-tetrahydro-9H-6,10-methanopyrimido[4′,5′:5,6]pyrido[3,2-b][1,4,7]oxadiazonin-9-yl)-4-(dimethylamino)but-2-en-1-one] |
